Reference: US9029414B2, “Triterpenoid compounds and methods of use thereof” (Biotechnology Research Corporation, priority 2008, dated 2015)

System: scopolamine-induced memory impaired mice
Assay: Morris water maze, scopolamine-induced memory impairment
Type: in vivo
Details: 10 mg/kg orally, scopolamine 4 mg/kg i.p.; day 4 and day 5
Description: 6-8 week old outbred male I.C.R. mice, weighing 25-35 g were housed two per cage in a climatically controlled animal room (23-25° C.) under 12 hours light/dark cycling. The animals were allowed access to water and food ad lib. The mice used for the experiment were brought to particular laboratory conditions for two days. All the experiments were conducted between 14:00 and 18:00. […] The experimental mice were randomly assigned into 4 or 6 groups, each consisting of 12 mice with similar mean body weights and age. The test compound was dissolved in physiological saline before the experiments each day. […]
Each mouse was subjected to 4 trials per day for 5 consecutive days. […] The probe trial (without platform) was assessed within a 60 s period on the fifth day of behavioral testing (one experiment), and the time spent in the southeast quadrant where the escape platform had been set during training was recorded computationally and presented as percentage of spatial bias.
The two-way ANOVA with repeated measures was used to analyze latency values, and calculated as the mean latency periods for each mouse. (Data are expressed as means±S.E.M. by using 2-way ANOVA). One-way ANOVA followed by Duncan's multiple-range test (data expressed as mean±S.E.M. *P<0.05 and **P<0.01 versus scopolamine) was used to analyze group differences of the data collected during probe trials. […]

C=C(C)[C@@H]1CC[C@]2(/C=N/O)CC[C@]3(C)C(CCC4[C@@]5(C)CCC(=O)[C@@](C)(CO)[C@@H]5CC[C@]43C)C12 (stereo partly shown) [DA021]
escape latency: significantly reversed the increased escape latency
